Holding throughout (assay type): cell-based
Common to all, as to conditions: 1 nM mibolerone, 24 hours

For assay [1], the target named is T1, AR (Homo sapiens, UniProt P10275, T878A).
T1 sequence (P10275 1-920 T878A): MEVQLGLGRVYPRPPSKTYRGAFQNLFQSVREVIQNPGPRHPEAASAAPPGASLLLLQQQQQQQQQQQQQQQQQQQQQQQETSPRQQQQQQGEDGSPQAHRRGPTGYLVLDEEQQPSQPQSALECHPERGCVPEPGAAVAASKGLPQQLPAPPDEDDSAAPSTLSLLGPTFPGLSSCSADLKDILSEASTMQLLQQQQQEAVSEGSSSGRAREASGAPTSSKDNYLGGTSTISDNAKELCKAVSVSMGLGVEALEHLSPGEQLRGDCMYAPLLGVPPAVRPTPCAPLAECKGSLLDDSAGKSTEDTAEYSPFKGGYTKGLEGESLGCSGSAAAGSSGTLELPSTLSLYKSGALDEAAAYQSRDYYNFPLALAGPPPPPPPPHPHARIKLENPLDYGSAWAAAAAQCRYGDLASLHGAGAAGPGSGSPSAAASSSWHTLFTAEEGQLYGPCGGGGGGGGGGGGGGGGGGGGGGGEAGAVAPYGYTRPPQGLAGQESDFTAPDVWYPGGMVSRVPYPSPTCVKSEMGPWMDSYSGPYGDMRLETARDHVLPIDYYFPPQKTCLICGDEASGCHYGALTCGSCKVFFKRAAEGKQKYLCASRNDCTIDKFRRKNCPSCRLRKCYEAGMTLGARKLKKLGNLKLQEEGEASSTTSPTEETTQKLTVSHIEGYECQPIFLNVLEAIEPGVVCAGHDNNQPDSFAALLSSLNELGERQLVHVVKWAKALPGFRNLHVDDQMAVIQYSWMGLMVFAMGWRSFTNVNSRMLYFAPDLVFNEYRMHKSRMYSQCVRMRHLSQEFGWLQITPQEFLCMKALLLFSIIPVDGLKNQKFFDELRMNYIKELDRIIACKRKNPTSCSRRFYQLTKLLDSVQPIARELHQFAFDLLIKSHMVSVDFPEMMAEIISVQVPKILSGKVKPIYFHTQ
The assay is described as follows: PSA mRNA expression (Northern blot) in C4-2 cells. More on the design: The androgen depletion independent (ADI) LNCaP-derived C4-2 cell line was purchased from UroCor; endogenous in cells; host or cells: C4-2.
Method: (§1) For androgen response experiments, LNCaP and C4-2 cells were grown in serum-free medium or medium supplemented with 10% charcoal stripped (steroid depleted) serum (CSS) for 48 hours. […] The cells were cultured for an additional 24 hours and then harvested. For C4-2 siRNA-transfection experiments, culture medium was replaced 24 hours post-transfection with RPMI containing 5% CSS. The cells were harvested after 48 hours.
For siRNA transfections, C4-2 cells were seeded at a density of 1.8×10^6 cells on 10 cm dishes in antibiotic-free RPMI 1640 containing 10% FBS. Cells were transfected 24 hours later with 500 pmol of a pool of four siRNAs targeted to the AR (AR SmartPool; Dharmacon, Lafayette, Colo.), or a pool of four non-targeted, control siRNAs (Dharmacon) using 25 μg Lipofectamine (Invitrogen, Carlsbad, Calif.) according to the manufacturer's protocol.
Total cellular RNA was isolated using acid-guanidinium phenol/chloroform extraction as described elsewhere (Chomczynski and Sacchi, Anal Biochem. 162:156-9, (1987)). Equal amounts of RNA (15 μg per lane) were fractionated on 1% denaturing formaldehyde-agarose gels. RNA was transferred to Hybond nylon membranes (Amersham, Piscataway, N.J.), UV cross-linked, and then hybridized with cDNA probes specific for PSA or GAPDH labeled with α^32P-dCTP using a RadPrime labeling kit (Invitrogen). […]

The target in assay [2] is T1, AR. The assay is described as follows: PSA mRNA expression (Northern blot) in LNCaP cells. Details: The androgen depletion independent (ADI) LNCaP-derived C4-2 cell line was purchased from UroCor; endogenous in cells; host or cells: C4-2.
Method: as §1
Total cellular RNA was isolated using acid-guanidinium phenol/chloroform extraction as described elsewhere (Chomczynski and Sacchi, Anal Biochem. 162:156-9, (1987)). Equal amounts of RNA (15 μg per lane) were fractionated on 1% denaturing formaldehyde-agarose gels. RNA was transferred to Hybond nylon membranes (Amersham, Piscataway, N.J.), UV cross-linked, and then hybridized with cDNA probes specific for PSA or GAPDH labeled with α^32P-dCTP using a RadPrime labeling kit (Invitrogen). Autoradiography was performed at −80° C. using an intensifier screen (Kodak).
For assay [3], the target named is T1, AR. The assay is described as follows: PSAenh(ARE)-E4-LUC luciferase reporter assay in LNCaP cells. More on the design: endogenous in cells. The procedure: The cells were harvested after an additional 24 hours. The transfection efficiency was typically 50-70%.
In general terms: In a reporter assay the amount or activity of a reporter protein is the signal.

The structures appear in SMILES notation.

In the case of `C[C@@H]1CC2=CC(=O)CC[C@@H]2[C@H]2CC[C@@]3(C)[C@@H](CC[C@]3(C)O)[C@@H]21` [mibolerone], the “PSA expression on androgen treatment” value on AR [1] is listed as “further increased”. On AR [2], the “PSA mRNA expression on androgen treatment” value is listed as “induced high levels of PSA mRNA expression”. Moreover, the “activation of the ARE-driven promoter PSAenh(ARE)E4-LUC” value at AR [3] is recorded as “robust activation”.
